Source: BindingDB's records for doi:10.7270/Q2G44NQ4 (Emory University, 2007)

Each compound was assayed against Mothers against decapentaplegic homolog 3 (Homo sapiens, UniProt P84022) (assay: SMAD3 transcription factor inhibitors, dose response (AID 715)).
Mothers against decapentaplegic homolog 3, sequence (P84022 whole entry): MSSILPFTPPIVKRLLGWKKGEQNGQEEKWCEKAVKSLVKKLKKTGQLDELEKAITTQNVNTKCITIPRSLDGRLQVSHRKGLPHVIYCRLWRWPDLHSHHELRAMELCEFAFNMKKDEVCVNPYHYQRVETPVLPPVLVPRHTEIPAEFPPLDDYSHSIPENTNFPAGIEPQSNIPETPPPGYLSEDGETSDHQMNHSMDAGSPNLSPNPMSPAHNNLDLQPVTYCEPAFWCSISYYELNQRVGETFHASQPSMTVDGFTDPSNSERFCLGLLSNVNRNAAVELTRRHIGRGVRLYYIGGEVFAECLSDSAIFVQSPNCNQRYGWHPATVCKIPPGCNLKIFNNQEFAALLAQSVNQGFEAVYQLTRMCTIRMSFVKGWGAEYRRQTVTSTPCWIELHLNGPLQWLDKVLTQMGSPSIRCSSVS

Q: Which IC50 does the source give for `CC1(C)CC(=O)C(C2(O)C(=O)NC(=O)NC2=O)C(=O)C1` [5-(4,4-dimethyl-2-oxidanyl-6-oxidanylidene-cyclohexen-1-yl)-5-oxidanyl-1,3-diazinane-2,4,6-trione] here?
A: 2.3 µM

Q: With `Cc1ccc(-[n+]2c(O)csc2[C-](C(Cl)=C(Cl)Cl)[N+](=O)[O-])cc1` [(2E)-3-(4-methylphenyl)-2-[2,3,3-tris(chloranyl)-1-nitro-prop-2-enylidene]-1,3-thiazolidin-4-one] as the compound, how does the IC50 read?
A: 27.7 µM

Q: With `O=C1C=CC(CN=Nc2nccs2)C=C1[N+](=O)[O-]` (centres undefined) [(4Z)-2-nitro-4-[(2-thiazolylhydrazo)methylidene]-1-cyclohexa-2,5-dienone] as the compound, how does the IC50 read?
A: 30.9 µM

Q: With `CCN(CC)P(=O)(NC(=O)C(Cl)(Cl)Cl)N(CC)CC` [MLS000564159] as the compound, how does the IC50 read?
A: 14.1 µM
